Laboratory results reported in publication PMC7408072 (Pharmaceutics, 2020).
Peptide text beside a SMILES is read from it. * marks the point of attachment. 5TAMRA = CN(C)c1ccc2c(c1)Oc1cc(N(C)C)ccc1C21OC(=O)c2cc(C(=O)*)ccc21

Legend:
[1] = tested on: primary bovine brain capillary endothelial cells co-cultured with primary rat astrocytes; experiment: Peptide stability on the in vitro bovine BBB model; type: in vitro ADME; conditions: FBS-free differentiation medium, 50 µM peptide, bovine BCEC/rat astrocyte co-culture, 37 °C, 90 rpm, HPLC C18, 220 and 543 nm, mean ± SD, N = 3
Description: BCECs co-cultured with rat astrocytes: a batch of capillary suspension was thawed and the DMSO removed by centrifugation in DMEM complete at 500× g for 5 min at room temperature. The pellet was re-suspended in DMEM complete and transferred to a culture flask (T75) coated with collagen and fibronectin (both 0.01 mg/mL in PBS). The capillary fragments were allowed to settle for 4–6 h in a humidified incubator (37 °C, 10% CO2) before changing the media to growth medium(+) (DMEM complete/ACM (1:1) with 125 µg/mL heparin) supplemented with 4 µg/mL pyromycin. On day 3, the BCECs received fresh growth medium(+) and rat astrocytes were seeded on the bottom of collagen and fibronectin coated (both 0.1 mg/mL in PBS) Transwell® plate permeable supports (Corning, Corning, NY, USA; 120,000 cells/1.12 cm^2 support with 0.4 µm pore size) in DMEM complete (37 °C, 10% CO2). On day 5, the media in the Transwell® plate was replaced by growth medium(-) (DMEM complete with 125 µg/mL heparin) and the endothelial cells detached from the flask using trypsin-EDTA (Thermo Fischer Scientific, Bedford, MA, USA). The remaining trypsin-EDTA was removed by centrifugation in DMEM complete at 1070× g for 5 min at room temperature. The endothelial cells were re-suspended in growth medium(-) and seeded on the apical side of the Transwell® plate permeable supports (100,000 cells/support). On day 8, the medium was changed to differentiation medium (DMEM containing 50 mM N-Tris-(hydroxymethyl)methyl-2-aminoethanesulfonic acid (TES), 10% FBS, 1% non-essential amino acids, 100 µg/mL penicillin/streptomycin (100 U/mL), 2 mM L-glutamine, 312.5 µM 8-(4-CPT)cyclic adenosine monophosphate, 0.5 µM dexamethasone, and 17.5 µM RO-20-1724). On day 11, the bovine BBB model was ready for use as evident by the measured transendothelial electrical resistance (TEER) values for each filter prior to experimental start.
Stability on the in vitro bovine BBB model: the differentiation medium was gently aspirated from the BCEC monolayers and replaced with 300 and 600 µL of 37 °C FBS-free differentiation medium containing 50 µM peptide on the luminal and abluminal side, respectively. The cells were incubated at 37 °C with horizontal shaking (90 rpm) for 4 h. Samples (10 µL) were withdrawn at 0, 10, 20, 30, 45, 60, 120, 180, and 240 min and two volumes of ice-cold ACN were immediately added prior to analysis by HPLC using an AdvanceBio Peptide Map column (C18, 4.6 × 150 mm, 2.7 µm particle size; Agilent, Glostrup, Denmark) connected to a Prominence system (LC-20 AD, SIL20 AC, SPD-M20A PDA, and CTO-20A modules; Shimadzu, Kyoto, Japan). Mobile phase A consisted of 95% ultrapure water and 5% ACN with 0.1% TFA and mobile phase B of 95% ACN and 5% ultrapure water with 0.1% TFA. […]

[2] = tested on: monocultures of primary bovine BCECs; experiment: Live cell peptide uptake; type: cell-based; conditions: 1 h, 37 °C, live cell imaging; 100 µM TAMRA-NR2B9c, 50 µM Tat peptides (method) / 100 µM (Figure 4 legend)
Description: BCECs were obtained from a batch of isolated capillary fragments and cultured as described in Section 2.2. Following trypsinization on day 5, the BCECs were re-suspended in differentiation medium and 90,000/cm^2 seeded on collagen- and fibronectin-coated (both 10 µg/mL in PBS) LabTek® microscope slides (Merck, Søborg, Denmark). The cells were left in the incubator (10% CO2, 37 °C) for 48 h prior to use. […] The test solutions were removed and pre-warmed media containing 300 nM Hoechst and Lysotracker® (1:20,000; Thermo Fischer Scientific, Bedford, MA, USA) applied to the cells for 10 min at 37 °C. The cells were gently washed twice in 37 °C hHBSS and immediately imaged in FluoBrite medium (Thermo Fischer Scientific, Bedford, MA, USA). Images were captured using an Olympus IX-83 fluorescent microscope (Olympus, Hamburg, Germany) equipped with a Yokogawa CSU-X spinning disc unit (Yokogawa, Tokyo, Japan) and Andor iXon Ultra 897 camera (Oxford Instruments, Abingdon, Great Britain) using cellSens software (Olympus, Hamburg, Germany).

[3] = tested on: primary mouse BCECs in co-culture with primary rat astrocytes; experiment: Transport and cellular accumulation (mouse BBB model); type: in vitro ADME; conditions: 100 µM peptide, 3 h, TAMRA fluorescence; for transendothelial permeation of the mouse BBB model compared to TAMRA-NR2B9c: N = 3, n = 3 (Figure S5A); for accumulation in the cell fraction of the mouse BBB model compared to TAMRA-NR2B9c: lysate, N = 3, n = 3 (Figure S5B)
Description: Generation of mouse BCEC monolayers in co-culture with rat astrocytes: the capillary fragments were allowed to settle for 2–3 h before changing the media to DMEM containing 10% FBS and pyromycin (4 µg/mL). On day 3, the media was changed to DMEM containing 10% FBS and rat astrocytes seeded on the bottom of collagen and fibronectin coated (both 0.01 mg/mL in PBS) Transwell® plate permeable supports (120,000 cells/1.12 cm^2 support with 0.4 µm pore size). On day 5, the media in the Transwell® plate was changed to Complete Mouse Endothelial Cell Medium (PELOBiotech, Planegg/Martinsried, Germany). The endothelial cells were detached from the flask using trypsin-EDTA. The remaining trypsin-EDTA was removed by centrifugation in DMEM containing 10% FBS at 500× g for 5 min at room temperature. The endothelial cells were re-suspended in Complete Mouse Endothelial Cell Medium and seeded on the apical side of the Transwell® plate permeable supports (100,000 cells/support). On day 8, the medium was changed to differentiation medium. On day 10, the mouse BBB model was ready for use as evident by the measured transendothelial electrical resistance (TEER) values for each filter prior experimental start.
Transport across bovine or mouse BCEC monolayers co-cultured with rat astrocytes was carried out over 3 h at 37 °C with horizontal shaking (90 rpm). TEER was measured at room temperature using an Endohm 12 cup (World Precision Instruments, Sarasota, FL, USA) connected to a Millicell-ERS device (Millipore, Bedford, MA, USA). TEER was measured before application of the peptides and after each experiment. The bovine model had initial TEER values ranging from 771 to 1332 Ω·cm^2, whereas the mouse model had initial TEER values ranging from 136 to 217 Ω·cm^2.
The withdrawn volume was replaced with media.
Transported peptide was calculated based on fluorescence using the same method as described for peptides applied to the bovine model. Subsequently, the peptide solutions were removed from the cells and the filters washed thrice with 4 °C hHBSS. To isolate the peptides accumulated in the cell fraction, the filter inserts were cut out and 250 µL of ice-cold lysis buffer added. The peptides were retrieved and quantified as described for the cell uptake fraction obtained following the permeation study using the bovine model.

Row | SMILES | % remaining after 4 h of luminal incubation on the BCECs [1] | peptide uptake into live BCECs [2] | transendothelial permeation of the mouse BBB model compared to TAMRA-NR2B9c [3] | accumulation in the cell fraction of the mouse BBB model compared to TAMRA-NR2B9c [3]
1 | CC[C@H](C)[C@H](NC(=O)[C@H](CO)NC(=O)[C@H](CO)NC(=O)[C@H](CC(C)C)NC(=O)[C@H](CCCCN)NC(=O)c1ccc2c(c1)C(=O)OC21c2ccc(N(C)C)cc2Oc2cc(N(C)C)ccc21)C(=O)N[C@@H](CCC(=O)O)C(=O)N[C@@H](CO)C(=O)N[C@@H](CC(=O)O)C(=O)N[C@H](C(=O)O)C(C)C [TAMRA-NR2B9c] (5TAMRA-KLSSIESDV-OH) | 95.7% ± 1.6% | No uptake | – | –
2 | CC[C@H](C)[C@H](NC(=O)CCOCCOCCN(CCOCCOCCC(=O)N[C@H](C(=O)N[C@@H](CCC(=O)O)C(=O)N[C@H](C(=O)N[C@@H](CC(=O)O)C(=O)N[C@H](C(=O)O)C(C)C)[C@@H](C)O)[C@@H](C)CC)C(=O)[C@H](CCCNC(=N)N)NC(=O)[C@H](CCCNC(=N)N)NC(=O)[C@H](CCCNC(=N)N)NC(=O)[C@H](CCC(N)=O)NC(=O)[C@H](CCCNC(=N)N)NC(=O)[C@H](CCCNC(=N)N)NC(=O)[C@H](CCCCN)NC(=O)[C@H](CCCCN)NC(=O)[C@H](CCCNC(=N)N)NC(=O)CNC(=O)[C@H](Cc1ccc(O)cc1)NC(=O)c1ccc2c(c1)C(=O)OC21c2ccc(N(C)C)cc2Oc2cc(N(C)C)ccc21)C(=O)N[C@@H](CCC(=O)O)C(=O)N[C@H](C(=O)N[C@@H](CC(=O)O)C(=O)N[C@H](C(=O)O)C(C)C)[C@@H](C)O [TAMRA-Tat-N-dimer] | 85.0% ± 6.0% | taken up into vesicular structures to a similar extent | lower | –
3 | CN(C)c1ccc2c(c1)Oc1cc(N(C)C)ccc1C21OC(=O)c2cc(C(=O)N[C@@H](Cc3ccc(O)cc3)C(=O)NCC(=O)N[C@@H](CCCNC(=N)N)C(=O)N[C@@H](CCCCN)C(=O)N[C@@H](CCCCN)C(=O)N[C@@H](CCCNC(=N)N)C(=O)N[C@@H](CCCNC(=N)N)C(=O)N[C@@H](CCC(N)=O)C(=O)N[C@@H](CCCNC(=N)N)C(=O)N[C@@H](CCCNC(=N)N)C(=O)N[C@@H](CCCNC(=N)N)C(=O)O)ccc21 [TAMRA-Tat] | 76.9% ± 5.6% | taken up into vesicular structures to a similar extent | similar | to a greater extent than TAMRA-NR2B9c
4 | CC[C@H](C)[C@H](NC(=O)[C@H](CO)NC(=O)[C@H](CO)NC(=O)[C@H](CC(C)C)NC(=O)[C@H](CCCCN)NC(=O)[C@H](CCCNC(=N)N)NC(=O)[C@H](CCCNC(=N)N)NC(=O)[C@H](CCCNC(=N)N)NC(=O)[C@H](CCC(N)=O)NC(=O)[C@H](CCCNC(=N)N)NC(=O)[C@H](CCCNC(=N)N)NC(=O)[C@H](CCCCN)NC(=O)[C@H](CCCCN)NC(=O)[C@H](CCCNC(=N)N)NC(=O)CNC(=O)[C@H](Cc1ccc(O)cc1)NC(=O)c1ccc2c(c1)C(=O)OC21c2ccc(N(C)C)cc2Oc2cc(N(C)C)ccc21)C(=O)N[C@@H](CCC(=O)O)C(=O)N[C@@H](CO)C(=O)N[C@@H](CC(=O)O)C(=O)N[C@H](C(=O)O)C(C)C [TAMRA-Tat-NR2B9c] (5TAMRA-YGRKKRRQRRRKLSSIESDV-OH) | 58.6% ± 13.1% | taken up into vesicular structures to a similar extent | to a greater extent than TAMRA-NR2B9c | to a greater extent than TAMRA-NR2B9c
